Reference: publication PMC5218480 (PLoS ONE, 2017)

Tested on: MV-4-11 cells
Assay: Gene expression microarray analysis (Affymetrix PrimeView) and GSEA
Assay type: cell-based, human
Parameters: RFU PODN (11730768_x_at) / Fold change /veh PODN (11730768_x_at) / RFU LINC00158 (11744669_a_at) / Fold change /veh LINC00158 (11744669_a_at) / RFU DUSP10 (11751237_a_at) / Fold change /veh DUSP10 (11751237_a_at) / RFU ID3 (11757404_x_at) / Fold change /veh ID3 (11757404_x_at) / RFU PLEKHG5 (11737974_s_at) / Fold change /veh PLEKHG5 (11737974_s_at) / RFU LRRC4B (11730491_at) / Fold change /veh LRRC4B (11730491_at) / RFU GIMAP4 (11747438_a_at) / Fold change /veh GIMAP4 (11747438_a_at) / RFU KRT8 (11758183_x_at) / Fold change /veh KRT8 (11758183_x_at) / RFU CNN1 (11734310_a_at) / Fold change /veh CNN1 (11734310_a_at) / RFU VPS37D (11726825_at) / Fold change /veh VPS37D (11726825_at) / RFU C10orf10 (11716522_x_at) / Fold change /veh C10orf10 (11716522_x_at) / RFU KIR2DL2 /// KIR2DL4 /// KIR2DL5A /// KIR2DL5B /// KIR2DS1 /// KIR2DS2 /// KIR2DS3 /// KIR2DS4 /// KIR3DL3 /// KIR3DL3 /// KIR3DS1 (11738374_at) / Fold change /veh KIR2DL2 /// KIR2DL4 /// KIR2DL5A /// KIR2DL5B /// KIR2DS1 /// KIR2DS2 /// KIR2DS3 /// KIR2DS4 /// KIR3DL3 /// KIR3DL3 /// KIR3DS1 (11738374_at) / RFU C1QL1 (11718748_at) / Fold change /veh C1QL1 (11718748_at) / RFU TMPRSS4 (11747572_a_at) / Fold change /veh TMPRSS4 (11747572_a_at) / RFU HAMP (11756126_x_at) / Fold change /veh HAMP (11756126_x_at) / RFU RNFT2 (11725882_a_at) / Fold change /veh RNFT2 (11725882_a_at) / RFU NR4A2 (11747474_a_at) / Fold change /veh NR4A2 (11747474_a_at) / RFU ABCC12 (11746883_a_at) / Fold change /veh ABCC12 (11746883_a_at) / RFU TMEM136 (11760407_x_at) / Fold change /veh TMEM136 (11760407_x_at) / RFU CLDN22 /// WWC2 (11732394_at) / Fold change /veh CLDN22 /// WWC2 (11732394_at) / RFU HLA-DPB1 (11760878_x_at) / Fold change /veh HLA-DPB1 (11760878_x_at) / RFU SPINT1 (11716480_a_at) / Fold change /veh SPINT1 (11716480_a_at) / RFU GAP43 (11754022_s_at) / Fold change /veh GAP43 (11754022_s_at) / RFU A4GNT (11735810_at) / Fold change /veh A4GNT (11735810_at) / RFU PRB3 (11715151_x_at) / Fold change /veh PRB3 (11715151_x_at) / RFU TUBB4B (11761932_at) / Fold change /veh TUBB4B (11761932_at) / RFU CAPN14 (11732068_a_at) / Fold change /veh CAPN14 (11732068_a_at) / RFU TMCC2 (11721928_a_at) / Fold change /veh TMCC2 (11721928_a_at) / RFU IRGQ (11745062_a_at) / Fold change /veh IRGQ (11745062_a_at) / RFU FAM174B (11720279_a_at) / Fold change /veh FAM174B (11720279_a_at) / RFU TMPRSS4 (11748680_a_at) / Fold change /veh TMPRSS4 (11748680_a_at) / RFU FAM212B (11763350_a_at) / Fold change /veh FAM212B (11763350_a_at) / RFU PLEKHG5 (11743358_a_at) / Fold change /veh PLEKHG5 (11743358_a_at) / RFU ZSCAN30 (11745921_a_at) / Fold change /veh ZSCAN30 (11745921_a_at) / RFU CMKLR1 (11741424_a_at) / Fold change /veh CMKLR1 (11741424_a_at) / RFU LOC101060620 /// MAPK8IP1 (11723275_at) / Fold change /veh LOC101060620 /// MAPK8IP1 (11723275_at) / RFU SPTSSB (11747773_x_at) / Fold change /veh SPTSSB (11747773_x_at) / RFU PRSS12 (11739890_at) / Fold change /veh PRSS12 (11739890_at) / RFU BIN1 (11741810_x_at) / Fold change /veh BIN1 (11741810_x_at) / RFU WNT11 (11732464_a_at) / Fold change /veh WNT11 (11732464_a_at) / RFU C10orf10 (11716521_a_at) / Fold change /veh C10orf10 (11716521_a_at) / RFU C5orf56 (11738089_at) / Fold change /veh C5orf56 (11738089_at) / RFU CYB561 (11721691_x_at) / Fold change /veh CYB561 (11721691_x_at) / RFU ANKRD19P (11752326_a_at) / Fold change /veh ANKRD19P (11752326_a_at) / RFU OR2T12 /// OR2T33 /// OR2T8 (11738714_s_at) / Fold change /veh OR2T12 /// OR2T33 /// OR2T8 (11738714_s_at) / RFU VCAN (11748164_a_at) / Fold change /veh VCAN (11748164_a_at) / RFU JSRP1 (11732532_at) / Fold change /veh JSRP1 (11732532_at) / RFU KRTAP10-11 (11738290_x_at) / Fold change /veh KRTAP10-11 (11738290_x_at) / RFU MYO3A (11730013_a_at) / Fold change /veh MYO3A (11730013_a_at) / RFU EBF3 (11725865_a_at) / Fold change /veh EBF3 (11725865_a_at) / RFU CAMK2N1 (11719241_x_at) / Fold change /veh CAMK2N1 (11719241_x_at) / RFU C5orf56 (11738088_a_at) / Fold change /veh C5orf56 (11738088_a_at) / RFU OLFML3 (11715873_a_at) / Fold change /veh OLFML3 (11715873_a_at) / RFU LOC100653217 /// NTM (11731650_a_at) / Fold change /veh LOC100653217 /// NTM (11731650_a_at) / RFU MAPK11 (11762145_a_at) / Fold change /veh MAPK11 (11762145_a_at) / RFU FIZ1 (11724087_x_at) / Fold change /veh FIZ1 (11724087_x_at) / RFU OASL (11726364_x_at) / Fold change /veh OASL (11726364_x_at) / RFU SOX15 (11748057_x_at) / Fold change /veh SOX15 (11748057_x_at) / RFU CD79A (11719716_a_at) / Fold change /veh CD79A (11719716_a_at) / RFU HIST1H1D (11736915_at) / Fold change /veh HIST1H1D (11736915_at) / RFU CASKIN2 (11723855_a_at) / Fold change /veh CASKIN2 (11723855_a_at) / RFU LOC730098 (11760151_x_at) / Fold change /veh LOC730098 (11760151_x_at) / RFU OR4N2 (11742367_at) / Fold change /veh OR4N2 (11742367_at) / RFU PRRT2 (11749266_a_at) / Fold change /veh PRRT2 (11749266_a_at) / RFU SNX32 (11753110_a_at) / Fold change /veh SNX32 (11753110_a_at) / RFU CDHR5 (11726645_a_at) / Fold change /veh CDHR5 (11726645_a_at) / RFU RCAN1 (11760418_a_at) / Fold change /veh RCAN1 (11760418_a_at) / RFU FAM167A (11723789_a_at) / Fold change /veh FAM167A (11723789_a_at) / RFU FAM26E (11764081_at) / Fold change /veh FAM26E (11764081_at) / RFU ISYNA1 (11749810_s_at) / Fold change /veh ISYNA1 (11749810_s_at) / RFU ACY1 (11761880_at) / Fold change /veh ACY1 (11761880_at) / RFU 11764098_at / Fold change /veh 11764098_at / RFU SAMD14 (11745864_x_at) / Fold change /veh SAMD14 (11745864_x_at) / RFU NPB (11741838_a_at) / Fold change /veh NPB (11741838_a_at) / RFU TMPRSS6 (11731388_a_at) / Fold change /veh TMPRSS6 (11731388_a_at) / RFU KRTAP10-2 (11738614_at) / Fold change /veh KRTAP10-2 (11738614_at) / RFU ARHGAP8 /// PRR5-ARHGAP8 (11727945_x_at) / Fold change /veh ARHGAP8 /// PRR5-ARHGAP8 (11727945_x_at) / RFU KRTAP5-7 /// NADSYN1 (11734609_at) / Fold change /veh KRTAP5-7 /// NADSYN1 (11734609_at) / RFU RASL12 (11751679_a_at) / Fold change /veh RASL12 (11751679_a_at) / RFU CDKN2B (11736163_a_at) / Fold change /veh CDKN2B (11736163_a_at) / RFU PRF1 (11729649_at) / Fold change /veh PRF1 (11729649_at) / RFU, ZNF638 /// ZNF638-IT1 / Fold change vs veh, ZNF638 /// ZNF638-IT1 / RFU, PANK3 / Fold change vs veh, PANK3 / RFU, SH3YL1 / Fold change vs veh, SH3YL1 / RFU, ZEB2 / Fold change vs veh, ZEB2 / RFU, NRIP1 / Fold change vs veh, NRIP1 / RFU, PTTG1IP / Fold change vs veh, PTTG1IP / RFU, CAPN2 / Fold change vs veh, CAPN2 / RFU, MED14 / Fold change vs veh, MED14 / RFU, SNORA58 / Fold change vs veh, SNORA58 / RFU, C1orf63 / Fold change vs veh, C1orf63 / RFU, LRRFIP1 / Fold change vs veh, LRRFIP1 / RFU, NDUFAF7 / Fold change vs veh, NDUFAF7 / RFU, SLC12A2 / Fold change vs veh, SLC12A2 / RFU, IBTK / Fold change vs veh, IBTK / RFU, ESF1 / Fold change vs veh, ESF1 / Fold change vs veh, TMEM50B / RFU, TAOK1 / Fold change vs veh, TAOK1 / RFU, ACBD3 / Fold change vs veh, ACBD3 / RFU, TMA16 / Fold change vs veh, TMA16 / RFU, RWDD3 / Fold change vs veh, RWDD3 / RFU, BCAT1 / Fold change vs veh, BCAT1 / RFU, EDEM3 / Fold change vs veh, EDEM3 / RFU, TMEM33 / Fold change vs veh, TMEM33 / RFU, WDR75 / Fold change vs veh, WDR75 / RFU, AHCTF1 / Fold change vs veh, AHCTF1 / RFU, TFRC / Fold change vs veh, TFRC / RFU, ZDHHC17 / Fold change vs veh, ZDHHC17 / RFU, NOM1 / Fold change vs veh, NOM1 / RFU, ARL8B / Fold change vs veh, ARL8B / RFU, ZBTB11 / Fold change vs veh, ZBTB11 / RFU, TAMM41 / Fold change vs veh, TAMM41 / RFU, KIAA1704 /// LOC100996395 / Fold change vs veh, KIAA1704 /// LOC100996395 / RFU, ING1 / Fold change vs veh, ING1 / RFU, TRMT61B / Fold change vs veh, TRMT61B / RFU, FUBP3 / Fold change vs veh, FUBP3 / RFU, TP53 / Fold change vs veh, TP53 / RFU, TNKS2 / Fold change vs veh, TNKS2 / RFU, ZFP14 / Fold change vs veh, ZFP14 / RFU, ACTR2 / Fold change vs veh, ACTR2 / RFU, PPP3R1 / Fold change vs veh, PPP3R1 / RFU, PIK3R1 / Fold change vs veh, PIK3R1 / RFU, HNRNPA1 / Fold change vs veh, HNRNPA1 / RFU, RNF170 / Fold change vs veh, RNF170 / RFU, ZNF28 / Fold change vs veh, ZNF28 / RFU, RNGTT / Fold change vs veh, RNGTT / RFU, OGT / Fold change vs veh, OGT / RFU, BRD1 / Fold change vs veh, BRD1 / RFU, MARS / Fold change vs veh, MARS / RFU, ZNF655 / Fold change vs veh, ZNF655 / RFU, FAHD1 / Fold change vs veh, FAHD1 / RFU, BDP1 / Fold change vs veh, BDP1 / RFU, LRRCC1 / Fold change vs veh, LRRCC1 / RFU, ARID1A / Fold change vs veh, ARID1A / RFU, ZNF146 / Fold change vs veh, ZNF146 / RFU, ZNF330 / Fold change vs veh, ZNF330 / RFU, GPN3 / Fold change vs veh, GPN3 / RFU, C9orf123 / Fold change vs veh, C9orf123 / RFU, N4BP2L2 / Fold change vs veh, N4BP2L2 / RFU, ARFIP1 / Fold change vs veh, ARFIP1 / RFU, FAM179B / Fold change vs veh, FAM179B / RFU, BCL10 / Fold change vs veh, BCL10 / RFU, UHRF1BP1L / Fold change vs veh, UHRF1BP1L / RFU, BET1 / Fold change vs veh, BET1 / RFU, CNOT2 / Fold change vs veh, CNOT2 / RFU, ZNF268 / Fold change vs veh, ZNF268 / Fold change vs veh, ZNF507 / RFU, DGCR2 / Fold change vs veh, DGCR2 / RFU, WDSUB1 / Fold change vs veh, WDSUB1 / Fold change vs veh, HSP90B1 /// MIR3652 / RFU, ADSS / Fold change vs veh, ADSS / RFU, GK / Fold change vs veh, GK / RFU, ZNF148 / Fold change vs veh, ZNF148 / RFU, TAF9 / Fold change vs veh, TAF9 / RFU, SLC1A5 / Fold change vs veh, SLC1A5 / RFU, SLMO2 / Fold change vs veh, SLMO2 / RFU, ABCC4 / Fold change vs veh, ABCC4 / RFU, LOC101060439 /// RAP1B / Fold change vs veh, LOC101060439 /// RAP1B / RFU, RFX7 / Fold change vs veh, RFX7 / RFU, GTPBP10 / Fold change vs veh, GTPBP10 / RFU, CNEP1R1 / Fold change vs veh, CNEP1R1 / RFU, BIVM-ERCC5 /// ERCC5 / Fold change vs veh, BIVM-ERCC5 /// ERCC5 / RFU, ILF3 / Fold change vs veh, ILF3 / RFU 11762660_at / Fold change /veh 11762660_at / RFU VCAN (11757783_s_at) / Fold change /veh VCAN (11757783_s_at) / RFU DDX43 (11728927_at) / Fold change /veh DDX43 (11728927_at) / RFU KRT8 (11758188_x_at) / Fold change /veh KRT8 (11758188_x_at) / RFU NKD1 (11759106_at) / Fold change /veh NKD1 (11759106_at) / RFU SRD5A1 (11742802_a_at) / Fold change /veh SRD5A1 (11742802_a_at) / RFU TPSAB1 /// TPSB2 (11721975_s_at) / Fold change /veh TPSAB1 /// TPSB2 (11721975_s_at) / RFU GSTM3 (11746129_a_at) / Fold change /veh GSTM3 (11746129_a_at) / RFU IL23R (11737362_x_at) / Fold change /veh IL23R (11737362_x_at) / RFU TMEM51 (11727254_a_at) / Fold change /veh TMEM51 (11727254_a_at) / RFU PIWIL2 (11732686_x_at) / Fold change /veh PIWIL2 (11732686_x_at) / RFU ORM1 (11744905_x_at) / Fold change /veh ORM1 (11744905_x_at) / RFU CCDC152 (11743942_at) / Fold change /veh CCDC152 (11743942_at) / RFU ECM1 (11717891_a_at) / Fold change /veh ECM1 (11717891_a_at) / RFU IL23R (11748794_a_at) / Fold change /veh IL23R (11748794_a_at) / RFU TNFAIP8L3 (11732012_x_at) / Fold change /veh TNFAIP8L3 (11732012_x_at) / RFU MBOAT4 (11741988_at) / Fold change /veh MBOAT4 (11741988_at) / RFU 11764193_at / Fold change /veh 11764193_at / RFU TMEM53 (11763286_at) / Fold change /veh TMEM53 (11763286_at) / RFU MAGEB2 (11727129_at) / Fold change /veh MAGEB2 (11727129_at) / RFU TMEM200A (11744735_a_at) / Fold change /veh TMEM200A (11744735_a_at) / RFU CCDC152 (11751479_a_at) / Fold change /veh CCDC152 (11751479_a_at) / RFU FAM211A (11726209_a_at) / Fold change /veh FAM211A (11726209_a_at) / RFU RGS16 (11746705_a_at) / Fold change /veh RGS16 (11746705_a_at) / RFU VCAN (11755009_s_at) / Fold change /veh VCAN (11755009_s_at) / RFU RHOB (11743442_s_at) / Fold change /veh RHOB (11743442_s_at) / RFU RGS16 (11720943_a_at) / Fold change /veh RGS16 (11720943_a_at) / RFU RGS16 (11720944_at) / Fold change /veh RGS16 (11720944_at) / RFU, VPS4B / Fold change vs veh, VPS4B / RFU, CREB1 / Fold change vs veh, CREB1 / RFU, DNAJC13 / Fold change vs veh, DNAJC13 / RFU, GNAQ / Fold change vs veh, GNAQ / RFU, CDK5R1 / Fold change vs veh, CDK5R1 / RFU, ZRANB3 / Fold change vs veh, ZRANB3 / RFU, CUL4A / Fold change vs veh, CUL4A / RFU, CCNY / Fold change vs veh, CCNY / RFU, UFL1 / Fold change vs veh, UFL1 / RFU, COG3 / Fold change vs veh, COG3 / RFU, DIAPH2 / Fold change vs veh, DIAPH2 / RFU, SKA2 / Fold change vs veh, SKA2 / RFU, AFF3 / Fold change vs veh, AFF3 / RFU, LMF1 / Fold change vs veh, LMF1 / RFU, IPO11 / Fold change vs veh, IPO11 / RFU, DFFB / Fold change vs veh, DFFB / RFU, FOXP1 / Fold change vs veh, FOXP1 / RFU, CARD8 / Fold change vs veh, CARD8 / RFU, STRN3 / Fold change vs veh, STRN3 / RFU, ADK / Fold change vs veh, ADK / RFU, RASSF2 / Fold change vs veh, RASSF2 / RFU, WIPF1 / Fold change vs veh, WIPF1 / RFU, LARP1B / Fold change vs veh, LARP1B / RFU, RASA1 / Fold change vs veh, RASA1 / RFU, RB1 / Fold change vs veh, RB1 / RFU, PPFIA1 / Fold change vs veh, PPFIA1 / RFU, MAT2A / Fold change vs veh, MAT2A / RFU, CCT5 / Fold change vs veh, CCT5 / RFU, WDR92 / Fold change vs veh, WDR92 / RFU, CUX1 / Fold change vs veh, CUX1 / RFU, TTC7A / Fold change vs veh, TTC7A / RFU, TMEM135 / Fold change vs veh, TMEM135 / RFU, DEPTOR / Fold change vs veh, DEPTOR / RFU, CPM / Fold change vs veh, CPM / RFU, DNAJB6 / Fold change vs veh, DNAJB6 / RFU, CACNA2D3 / Fold change vs veh, CACNA2D3 / RFU, DTX4 / Fold change vs veh, DTX4 / RFU, TFCP2 / Fold change vs veh, TFCP2 / RFU, GMCL1 /// GMCL1P1 / Fold change vs veh, GMCL1 /// GMCL1P1 / RFU, AEBP2 / Fold change vs veh, AEBP2 / RFU, SNHG1 /// SNORD22 /// SNORD25 /// SNORD26 /// SNORD27 /// SNORD28 /// SNORD29 /// SNORD31 / Fold change vs veh, SNHG1 /// SNORD22 /// SNORD25 /// SNORD26 /// SNORD27 /// SNORD28 /// SNORD29 /// SNORD31 / Fold change (Aza/veh), C12orf56 (ProbeSet 11735607_a_at) / Fold change (ACY-1035/veh), C12orf56 (ProbeSet 11735607_a_at) / Fold change (Aza/veh), FGFR1OP (ProbeSet 11751329_s_at) / Fold change (ACY-1035/veh), FGFR1OP (ProbeSet 11751329_s_at) / Fold change (Aza/veh), VPS36 (ProbeSet 11739960_a_at) / Fold change (ACY-1035/veh), VPS36 (ProbeSet 11739960_a_at) / RFU SYPL1 (11715823_x_at) / Fold change /veh SYPL1 (11715823_x_at) / RFU IGFBP7 (11715501_s_at) / Fold change /veh IGFBP7 (11715501_s_at) / RFU REEP3 (11722064_at) / Fold change /veh REEP3 (11722064_at) / RFU IGLL1 (11728026_x_at) / Fold change /veh IGLL1 (11728026_x_at): dose or concentration left out as unconfirmed
Conditions: ProbeSet 11716865_a_at; LIST B

## Nc1ncn([C@@H]2O[C@H](CO)[C@@H](O)[C@H]2O)c(=O)n1 [azacitidine]
  RFU, SLC1A5: 258.33 RFU
